Measured values taken from article PMC6615598, “Novel antibiotics effective against gram-positive and -negative multi-resistant bacteria with limited resistance” (PLoS Biology, 2019).
“And” between values parts separate entries of the source, which are not always exact repeats. Equal values may be shown once. Read-outs that look alike come from different tables or passages of the source. Starred links: 1 amine or outer side, 2 acyl side, 3 side chain; linkers in the order of their positions; H or OH if unused. Non-standard residues stand in square brackets, D forms with d. Residues, ends and D or L forms follow the SMILES beside them. azaβ3(1Nal) = O=C(CN(Cc1cccc2ccccc12)N[*:1])[*:2]

What was measured:
MRSA [1] = test: In vivo resistance: kidney extracts plated on plates containing 1- to 8-fold peptide MIC (severe sepsis); format: cell-based, S. aureus; details: kidneys at day 7 after repeated treatments, plates with drug at 2-fold MIC
Experimental: For 15 d in MHB, MICs were determined daily for each pseudopeptide and their antibiotic controls. This was done using cells from the well in which the compound concentration was one-half of the MIC (1/2MIC). For each compound, the 1/2MIC well from the previous day’s MIC assay plate was re-suspended and the bacteria grown to a density of about 10^8 cells ml−1. The suspension was diluted in MHB or CAMHB (10^6 cells/ml) and then used to determine the MIC of the same compound determined by micro broth dilution. All MIC measurements were performed in duplicate. Aliquots of the 5 × 10^4 cell/ml dilutions for each 1/2MIC well were periodically plated on MHB and incubated at 35°C for 18 h to verify cell density by colony counts and for visual inspection of colony phenotypes. To control compound stability, peptide solution MICs were determined during and at the end of the 15 d and were compared to cells unexposed to antibiotics. In vivo resistance was also assessed in treated mice (1.5 mg.kg^−1) for 4 d (sepsis) or 6 d (skin abscesses). […] For severe sepsis and subcutaneous abscesses, in vivo resistance was determined by plating aliquots of crude kidney extracts or abscesses on plates containing 1-, 2-, 4-, or 8-fold the peptide MICs 7 or 3 d post infections, respectively.

[2] = set-up: species or system mice; details: mouse, in vivo, iv
Experimental: Control embryos were injected with 1 nl of water. […] Each animal was checked for mortality twice per day. […] RBCs were washed until the supernatant was clear. […] RBCs in PBS were a negative control without hemolysis.
Supplementary file pbio.3000337.s011.docx: S5 Table Mice toxicity assays. Clinical signs observed on Day 1 after IV administration of each of the peptide and pseudopeptides in sets of 3 mice. Not observed symptoms are marked with a dash. (DOCX) Click here for additional data file.

S. aureus MRSA = test: Cutaneous abscess mouse model (lesion size, CFU); format: in vivo, mice
Experimental: (§1) For the cutaneous abscess model, the mice were randomly divided into 5 sets. The mice were anesthetized with isoflurane, their dorsal fur shaved, and their skin disinfected with 70% ethanol. An overnight culture of S. aureus MRSA or P. aeruginosa LESB58 was washed with 0.9% NaCl, and then a subcutaneous injection of 2 × 10^9 CFUs and an equal amount of sterile Cytodex microcarrier beads (20 mg.ml^−1, Sigma) for S. aureus MRSA, or 10^8 CFUs for P. aeruginosa were injected into the shaved area. […] Mice were monitored every day and then euthanized with CO2 on Day 6 or on Day 3. Abscesses were excised, measured, and homogenized in PBS using an Ultra-Turax. Serial dilutions of the samples were plated on BHI (MRSA) or 2YT medium (LESB58) plates and then incubated overnight at 37°C. Afterward, the CFUs were counted and expressed as log CFU/ml. Dermonecrosis areas were calculated according to the formula π × L × W. ATP levels were determined with an ATP assay kit (Promega) according to manufacturer instructions on sets of 5 colonies harboring the SCV phenotype, and sets of 5 colonies harboring a normal phenotype, after growth on BHI plates.

P. aeruginosa LESB58 = test: Cutaneous abscess mouse model (CFU); format: in vivo, mice
Experimental: as §1

MRSA [3] = test: Membrane permeation, SYTO Green fluorescence; format: cell-based, S. aureus
Experimental: Permeation assays were also performed on gram-positive S. aureus membranes (MSSA and MRSA) by fluorescence assay [31] with SYTO Green nucleic acid stain (Life Technologies) in black flat-bottom 96-well microtiter plates (Greiner) in biological triplicate. Bacteria were grown to 0.3–0.4 OD600 in CAMHB at 37°C and centrifuged at 3,500 tr/min for 10 min. The pellet was washed and dissolved in PBS to an absorbance of 0.4 at 600 nm (approximately 2.10^8 CFU/ml). SYTO Green was added to the cells at a 5 μM final concentration, with dark incubation for 30 min. The amount of 50 μL of bacteria/SYTO Green mixture was added to each well containing compounds serially diluted in PBS, and fluorescence was measured at 37°C for up to 12 h using a spectrophotometer (BIOTEK, Tungsten-Halogen Lamp) with 485 nm excitation and 525 nm emission wavelengths.

[4] = mice, MRSA subcutaneous, single IV 1.5 mg.kg^−1 at 24 h, 6 days post infection

CC(C)[C@@H]1NC(=O)[C@H](CCCNC(=N)N)NC(=O)[C@H](CCCNC(=N)N)NC(=O)CN(Cc2cccc3ccccc23)NC(=O)[C@H](Cc2ccccc2)NC(=O)CN(Cc2cccc3ccccc23)NC(=O)[C@H](CCCCN)NC1=O [Pep19] (cyclo([azaβ3(1Nal)]F[azaβ3(1Nal)]RRVK))
Clones with increased resistance from kidneys (MRSA [1]): no clones with increased resistances were detected | Abdominal breathing, mice with sign [2]: - | Half-closed eyes, mice with sign [2]: - | Hindlimbs widespread, mice with sign [2]: 1 | Piloerection, mice with sign [2]: 3 | Abdominal breathing, mice with sign ([2]; 2 mg/kg): - | Decreased grasping reflex, mice with sign ([2]; 2 mg/kg): - | Dyspnea, mice with sign ([2]; 2 mg/kg): - | Half-closed eyes, mice with sign ([2]; 2 mg/kg): - | Hunched posture, mice with sign ([2]; 2 mg/kg): 1 | Hypoactivity, mice with sign ([2]; 2 mg/kg): 1 | Hypotonia, mice with sign ([2]; 2 mg/kg): - | Piloerection, mice with sign ([2]; 2 mg/kg): 3 | Red-colored ears, mice with sign ([2]; 2 mg/kg): - | Red-colored eyes, mice with sign ([2]; 2 mg/kg): - | Staggering gait, mice with sign ([2]; 2 mg/kg): 1 | Sudden startle, mice with sign ([2]; 2 mg/kg): - | Decreased grasping reflex, mice with sign ([2]; […]): - | Half-closed eyes, mice with sign ([2]; […]): - | Hypotonia, mice with sign ([2]; […]): - | Piloerection, mice with sign ([2]; […]): 3 | Red-colored ears, mice with sign ([2]; […]): - | Red-colored eyes, mice with sign ([2]; […]): - | CFU counts per abscess, SCV (S. aureus MRSA; cutaneous abscesses from MRSA in mice, IV 24 h post-infection, 1.5 mg.kg-1, SCV, individual values): 5.62 log Cfu/ml and 5.85 log Cfu/ml and 5.73 log Cfu/ml and 5.93 log Cfu/ml and 5.11 log Cfu/ml and 4.73 log Cfu/ml and 4.55 log Cfu/ml and 5.5 log Cfu/ml and 5.67 log Cfu/ml | Area of dermonecrosis (S. aureus MRSA; cutaneous abscesses from MRSA in mice, IV 24 h post-infection, 1.5 mg.kg-1, individual values): 165.8 mm2 and 78.8 mm2 and 98.9 mm2 and 174.7 mm2 and 106.7 mm2 and 160.2 mm2 and 96.4 mm2 and 106.4 mm2 and 176.2 mm2 | Bacterial content of skin abscess (S. aureus MRSA; [4]): strong reduction | Skin abscess volume (S. aureus MRSA; [4]): strong reduction | CFU counts per abscess (P. aeruginosa LESB58; cutaneous abscesses induced by P. aeruginosa in mice, repeated doses post-infection, 30mg/kg, second data set, individual values): 5.3 log Cfu/ml and 4.34 log Cfu/ml and 3.16 log Cfu/ml and 3.11 log Cfu/ml and 2.85 log Cfu/ml and 6.21 log Cfu/ml and 4.95 log Cfu/ml | Reduction of the bacterial load of abscess (P. aeruginosa LESB58; mice, P. aeruginosa LESB58, 30 mg.kg^−1 subcutaneous twice a day for 2 d, day 3): ~50 fold | Membrane permeation (leakage) (MRSA [3]): most active
